Test results as given in patent US20010014732A1, “Biocidal proteins” (ZENECA Limited, priority 1991, published 2001).
“And” between values parts separate entries of the source, which are not always exact repeats. Equal entries are not always repeated.

How the values were obtained:
[1] = tested on: Cercospora beticola (strain E897); experiment: Anti-fungal activity against foliar disease: in vivo test on sugarbeet plants; details: foliar spray one day prior to inoculation
[2] = tested on: F culmorum and T hamatum; format: cell-based, Fusarium culmorum, Trichoderma hamatum
Method: Antifungal activity was measured by microspectrophotometry as previously described (Broekaert, 1990, FEMS Microbiol Lett, 69:55-60). Routinely, tests were performed with 20 μl of a (filter-sterilized) test solution and 80 μl of a suspension of fungal spores (2×10^4 spores/ml) in half strength potato dextrose broth (1/2 PDB). Some tests were performed using a suspension of mycelium fragments in a synthetic growth medium. […] Control microcultures contained 20 μl of sterile distilled water and 80 μl of the fungal suspension.
Unless otherwise stated the test organism was Fusarium culmorum (strain IMI 180420) and incubation was done at 25° C. for 48 hours. Percent growth inhibition is defined as 100 times the ratio of the corrected absorbance of the control microculture minus the corrected absorbance of the test microculture over the corrected absorbance at 595 nm of the control microculture. The corrected absorbance values equal the absorbance at 595 nm of the culture measured after 48 hours minus the absorbance at 595 nm measured after 30 min.
The effect of ions on the antifungal activity of the Rs-AFPs and Rs-nsLTP was examined in more detail. […] The reference medium was the synthetic growth medium described in Example 1 which contains a total of 2.5 mM monovalent cations and 0.1 mM divalent cations. […]

[3] = tested on: Fusarium culmorum IMI 180420; format: cell-based
[4] = tested on: Venturia inaegualis MUCL 15927; format: cell-based
[5] = tested on: Rhizoctonia solani CBS 207-84; format: cell-based
[6] = tested on: Bacillus megaterium ATCC 13632; format: cell-based
[7] = tested on: plant pathogenic fungi; format: cell-based
[8] = tested on: Cercospora beticola strain K897; format: cell-based
[9] = tested on: Septoria nodorum MUCL 30111; format: cell-based
[10] = tested on: Trichoderma hamatum MUCL 29736; format: cell-based
[11] = tested on: Agrobacterium tumefaciens C58, Alcaligenes eutrophus, Azospirillum brasilense Sp7, Bacillus megaterium ATCC 13632, Erwinia carotovora strain 3912, Escherichia …; format: cell-based
[12] = tested on: Sclerotinia sclerotianum MUCL 30163; format: cell-based
[13] = tested on: Fusarium oxysporum f.sp. pisi IMI 236441; format: cell-based

Molecule	concentration giving 50% control of the disease [1]	effect of Ca2+ on antifungal activity ([2]; CaCl2 at 5 mM)	effect of K+ on antifungal activity ([2]; KCl at up to 50 mM)	IC50 [3]	antifungal activity of the reversed-phase HPLC peak in medium A and medium B [3]	IC50 [4]	IC50 [5] [μg/m1]	concentration causing 50% inhibition of growth [6] [µg/mL]	fungi inhibited by more than 50% at concentrations below 100 μg/ml [7]	IC50 [8]	IC50 [9]	IC50 [10] [µg/mL]	effect on the other bacteria [11]	IC50 [12] [μg/m1]	IC50 [13] [μg/m1]
CCCCC(O)(Cn1cncn1)c1ccc(Cl)cc1Cl (stereo not shown) [hexaconazole, reference compound]	approximately 7 μM														
Rs-AFP2: antifungal protein from Raphanus sativus (radish) seeds, oligomeric, identical 5 kDa subunits, highly basic (QKLCQRPSGTWSGVCGNNNACKNQCIRLEKARHGSCNYVFPAHKCICYFPC; UniProt P30230 30-80, looked up)	approximately 15 μM	varied from a slight increase in IC50 for F culmorum to complete inactivation for T hamatum	did not affect the antifungal activity	2 µg/mL and 5 µg/mL	active in both medium A and medium B	25 μg/m1 and >50 μg/m1	>100	200	11 out of 18	2 μg/m1 and 3 μg/m1	15 μg/m1 and 20 μg/m1	2	no effect	>100	2
